# From patent US11945807B2, “Splicing modulator antibody-drug conjugates and methods of use” (EISAI R&D MANAGEMENT CO., LTD., priority 2018, dated 2024)
# Like-named read-outs stand apart in the source and are kept apart here.
# B1: AB205-ADL12-D2 (conjugate)
# heavy: QVQLQQSGSELMMPGASVKISCKATGYTFSNYWIQRPGHGLEWIGEILPGTGRTIYNEKFKGKATFTADISSNTVQMQLSSLTSEDSAVYYCARRDYYGNFYYAMDYWGQGTSVTVSSAKTTPPSVYPLAPGSAAQTNSMVTLGCLVKGYFPEPVTVTWNSGSLSSGVHTFPAVLQSDLYTLSSSVTVPSSTWPSETVTCNVAHPASSTKVDKKIVPRDCGCKPCICTVPEVSSVFIFPPKPKDVLTITLTPKVTCVVVDISKDDPEVQFSWFVDDVEVHTAQTQPREEQFNSTFRSVSELPIMHQDWLNGKEFKCRVNSAAFPAPIEKTISKTKGRPKAPQVYTIPPPKEQMAKDKVSLTCMITDFFPEDITVEWQWNGQPAENYKNTQPIMDTDGSYFVYSKLNVQKSNWEAGNTFTCSVLHEGLHNHHTEKSLSHSPG
# light: DIQMTQSTSSLSASLGDRVTISCSASQGINNYLNWYQQKPDGTVELLIYYTSTLQSGVPSRFSGSGSGTDYSLTISNLEPEDIGTYYCQQYSKLPRTFGGGTKLEIKRADAAPTVSIFPPSSEQLTSGGASVVCFLNNFYPKDINVKWKIDGSERQNGVLNSWTDQDSKDSTYSMSSTLTLTKDEYERHNSYTCEATHKTSTSPIVKSFNRNEC
# B2: AB205-ADL10-D1 (conjugate)
# heavy: B1 heavy
# light: B1 light
# B3: AB205-ADL1-D4 (conjugate)
# heavy: B1 heavy
# light: B1 light
# B4: AB205-ADL1-D14 (conjugate)
# heavy: B1 heavy
# light: B1 light
# B5: AB205-ADL5-D25 (conjugate)
# heavy: B1 heavy
# light: B1 light
# B6: AB205-ADL5-D15 (conjugate)
# heavy: B1 heavy
# light: B1 light
# B7: AB205-ADL5-D19 (conjugate)
# heavy: B1 heavy
# light: B1 light
# B8: AB205-ADL1-D1 (conjugate)
# heavy: B1 heavy
# light: B1 light
# Columns and labels:
# [1] = Chemical stability of ADC payload, pH 5.5 buffer; type: physicochemical; conditions: for half-life at 20 μM: McIlvaine (citrate-phosphate) buffer, unconjugated payload, Citrate-Phosphate buffer pH 5.5, 37° C., read-out: Stability Mean Stability t1/2 pH5.5 (converted); for pH 5.5 Stability (t1/2, 37 C.): pH 5.5, 37 C., corresponding payload
# Excerpt: (Eppendorf ThermoMixer). […] Time 0 was set to 100.
# [2] = system: THP1.1; test: Payload cell potency and lethality CTGlo 72 h, THP1.1; type: cell-based; conditions: unconjugated payload; for GI50: payload cell potency and lethality
# [3] = Caco-2 permeability of ADC payload; type: in vitro ADME; conditions: human; for Papp B→A at 2 h, 10 NM: basolateral to apical, read-out: Permeability Mean Caco-2 B-A Perm (10e−G cm/s)
# Description: Integrity of cell monolayer was confirmed by TEER (transepithelial electrical resistance) and Lucifer yellow. Payloads were spiked in duplicate at 10 NM, separately, on both sides of the cell monolayer. Permeability rates from the apical to basolateral (A-B) direction and the basolateral to apical (B-A) direction were determined by sampling aliquots from both chambers immediately after treatment (t=0) and following incubation for 2 hours. Samples were protein precipitated with organic solvent containing internal standard and analyzed by LC-MS/MS (SCIEX; API 5500). The area ratio responses of payload/internal standard over time in both directions were used to generate permeability (cm/sec) values.
# [4] = system: MCF7 cells; test: Cell viability CellTiter-Glo, MCF7 (HER2-negative); type: cell-based; conditions: Homo sapiens, unconjugated payload of the ADC
# Description: (§1) HCC1954 (American Type Culture Collection (ATCC)) breast ductal carcinoma cells were plated at 2000 cells/well in flat bottom 96-well tissue culture plates (Corning) in a total volume of 90 μL tissue culture medium supplemented with 10% fetal bovine serum (ThermoFisher Scientific). Cells were treated with a 3-fold serial dilution of compound from 200 nM to 0.03 nM. Each concentration was tested in triplicate. At the time of treatment, a plate of untreated cells was evaluated using CellTiter-Glo®2.0 Luminescent Cell Viability Assay according to the manufacturers recommendations (Promega; #G9241). CellTiter-Glo® 2.0 reagent was added to the medium, incubated, and assayed on an EnVision Multilabel Reader (PerkinElmer). Values represent time zero (T0). […] Percentage growth inhibition was calculated as: [(T144−T0)/(C−T0)]×100 for concentrations for which T144>/=T0 or [(T144−T0)/T0]×100 for concentrations for which T144<T0. The dose response curve plots were generated using Prism 7 (Graphpad) and fit using nonlinear regression analysis and the log(inhibitor) versus response-variable slope (four parameters).
# (§2) HCC1954 (ATCC), 2000 cells/well), N87 (ATCC, 4000 cells/well), SKBR3 (ATCC, 3000 cells/well), and MCF7 (ATCC, 1500 cells/well) cell lines were used.
# [5] = system: N87 cells; test: Cell viability CellTiter-Glo, N87; type: cell-based, human; conditions: unconjugated payload of the ADC; for GI50: Homo sapiens
# Description: as §1, §2
# [6] = system: MOLP8 cells; test: Cell viability CellTiter-Glo, MOLP8 (CD138-expressing); type: cell-based
# Description: as §1
# (§3) Anti-CD138 ADCs were tested in the CD138-expressing MOLP8 multiple myeloma cell line. Similarly, anti-EPHA2 ADCs were tested in the EPHA2-expressing PC3 prostate cancer cell line.
# [7] = system: PC3 cells; test: Cell viability CellTiter-Glo, PC3 (EPHA2-expressing); type: cell-based; conditions: for GI50: Homo sapiens, PC-3, free payload of the ADC
# Description: as §1, §3
# [8] = system: HCC1954 cells; test: Cell viability CellTiter-Glo, HCC1954; conditions: Homo sapiens, HCC1954, read-out: Payload GI50 (nM)
# [9] = Caco-2, unconjugated payload, apical to basolateral, 2 hours, read-out: Permeability Mean Caco-2 A-B Perm (10e−6 cm/s)
# [10] = Caco-2, unconjugated payload, 2 hours
# [11] = unconjugated payload of the ADC
# [12] = Caco-2, A-B, corresponding payload (Table 26), read-out: Permeability Caco-2 A-B (10e−6 cm/s)
# [13] = anti-CD138 ADC, read-out: SMLA GI50
molecule,measurement,setting,value
"CC[C@H](O)[C@@H](C)[C@H]1O[C@@H]1C[C@@](C)(O)/C=C/C=C(\C)[C@H]1OC(=O)C[C@H](O)CC[C@@](C)(O)[C@@H](OC(=O)N2CCN(C3CCCCCC3)CC2)/C=C/[C@@H]1C [D11, E7107]",half-life at 20 μM,[1],90 h
same,CTGlo-AT S Mean Min-Response % 72 h THP1.1,[2],−100.481%
same,"Papp A→B at 2 h, 10 NM",[3]; [9],0.87 ×10⁻⁶ cm/s
same,"Papp B→A at 2 h, 10 NM",[3]; [10],10.6 ×10⁻⁶ cm/s
CC[C@H](O)[C@@H](C)[C@H]1O[C@@H]1C[C@H](C)/C=C/C=C(\C)[C@H]1OC(=O)C[C@H](O)CC[C@@](C)(OC(=O)N2CCNCC2)[C@@H](OC(C)=O)/C=C/[C@@H]1C [D13],half-life at 20 μM,[1],< 24 h
same,CTGlo-AT S Mean Min-Response % 72 h THP1.1,[2],−99.941%
same,GI50,[2],0.892 nM
same,"Papp A→B at 2 h, 10 NM",[3]; [9],0.9 ×10⁻⁶ cm/s
same,"Papp B→A at 2 h, 10 NM",[3]; [10],17.2 ×10⁻⁶ cm/s
CC(=O)N1CCC(n2nnc3c(F)cc(/C=C(\C)[C@H]4OC(=O)C[C@H](O)CC[C@H](C)[C@@H](OC(=O)N5CCNCC5)/C=C/[C@@H]4C)cc32)CC1 [D14],half-life at 20 μM,[1],> 168 h
same,CTGlo-AT S Mean Min-Response % 72 h THP1.1,[2],−99.209%
same,GI50,[2],3.584 nM
same,GI50,[4],5.29 nM
same,"Papp A→B at 2 h, 10 NM",[3]; [9],0.06 ×10⁻⁶ cm/s
same,"Papp B→A at 2 h, 10 NM",[3]; [10],12.1 ×10⁻⁶ cm/s
same,GI50,[5],2.92 nM
same,Payload Rmin (%),[5],−52.662%
same,GI50,"[6]; Homo sapiens, MOLP-8, unconjugated payload of the ADC, read-out: Payload GI50",1.9 nM
same,Payload LD50,[6]; [11],8.5 nM
same,Payload Rmin (%),[6]; [11],−61%
same,GI50,[7],3.88 nM
same,Payload Rmin (%),[7]; free payload of the ADC,−79.835%
C/C(=C\c1cc(F)cc(N2CCN(C(=O)Cn3cccn3)CC2)c1)[C@H]1OC(=O)C[C@H](O)CC[C@H](C)[C@@H](OC(=O)N2CCNCC2)/C=C/[C@@H]1C [D16],half-life at 20 μM,[1],> 168 h
same,"pH 5.5 Stability (t1/2, 37 C.)",[1],7
same,CTGlo-AT S Mean Min-Response % 72 h THP1.1,[2],−99.681%
same,GI50,[2],2.975 nM
same,"Papp A→B at 2 h, 10 NM",[3]; [12],0.72 ×10⁻⁶ cm/s
same,"Papp A→B at 2 h, 10 NM",[3]; [9],0.72 ×10⁻⁶ cm/s
same,"Papp B→A at 2 h, 10 NM",[3]; [10],23.3 ×10⁻⁶ cm/s
"CC[C@H](O)[C@@H](C)[C@H]1O[C@@H]1C[C@H](C)/C=C/C=C(\C)[C@H]1OC(=O)C[C@H](O)CC[C@@](C)(OC)[C@@H](OC(=O)N2CCNCC2)/C=C/[C@@H]1C [D18, (2S,3S,6S,7R,10R,E)-10-hydroxy-2-((S,2E,4E)-7-((2R,3R)-3-((2R,3S)-3-hydroxypentan-2-yl)oxiran-2-yl)-6-methylhepta-2,4-dien-2-yl)-7-methoxy-3,7-dimethyl-12-oxooxacyclododec-4-en-6-yl piperazine-1-carboxylate]",GI50,[8],0.208 nM
same,CTGlo-AT S Mean Min-Response % 72 h THP1.1,[2],−99.621%
same,GI50,[2],0.863 nM
same,GI50,[4],0.883 nM
same,"Papp A→B at 2 h, 10 NM",[3]; [9],1.19 ×10⁻⁶ cm/s
same,"Papp B→A at 2 h, 10 NM",[3]; [10],27.4 ×10⁻⁶ cm/s
same,GI50,[5],0.275 nM
same,Payload Rmin (%),[5],−92.127%
"CC[C@H](O)[C@@H](C)[C@H]1O[C@@H]1C[C@H](C)/C=C/C=C(\C)[C@H]1OC(=O)C[C@H](O)CC[C@@](C)(OC)[C@@H](OC(=O)N2CCN(C)CC2)/C=C/[C@@H]1C [D19, (2S,3S,6S,7R,10R,E)-10-hydroxy-2-((S,2E,4E)-7-((2R,3R)-3-((2R,3S)-3-hydroxypentan-2-yl)oxiran-2-yl)-6-methylhepta-2,4-dien-2-yl)-7-methoxy-3,7-dimethyl-12-oxooxacyclododec-4-en-6-yl 4-methylpiperazine-1-carboxylate]","pH 5.5 Stability (t1/2, 37 C.)",[1],0.8
same,"Papp A→B at 2 h, 10 NM",[3]; [12],16 ×10⁻⁶ cm/s
same,GI50,"[6]; Homo sapiens, MOLP-8, unconjugated payload of the ADC in the row, read-out: Payload GI50",0.84 nM
same,GI50,[7],1.41 nM
same,Payload LD50,[7]; free payload of the ADC,>400 nM
same,Payload Rmin (%),[7]; free payload of the ADC,−29.33%
"CC[C@H](O)[C@@H](C)[C@H]1O[C@@H]1C[C@@](C)(O)/C=C/C=C(\C)[C@H]1OC(=O)C[C@H](O)CC[C@@](C)(OC)[C@@H](OC(=O)N(C)CCNC)/C=C/[C@@H]1C [D20, (2S,3S,6S,7R,10R,E)-10-hydroxy-2-((R,2E,4E)-6-hydroxy-7-((2R,3R)-3-((2R,3S)-3-hydroxypentan-2-yl)oxiran-2-yl)-6-methylhepta-2,4-dien-2-yl)-7-methoxy-3,7-dimethyl-12-oxooxacyclododec-4-en-6-yl methyl(2-(methylamino)ethyl)carbamate]",half-life at 20 μM,[1],> 168 h
same,CTGlo-AT S Mean Min-Response % 72 h THP1.1,[2],−100.664%
same,GI50,[2],28.336 nM
same,"Papp A→B at 2 h, 10 NM",[3]; [9],0.16 ×10⁻⁶ cm/s
same,"Papp B→A at 2 h, 10 NM",[3]; [10],0.38 ×10⁻⁶ cm/s
"CC[C@H](O)[C@@H](C)[C@H]1O[C@@H]1C[C@@](C)(O)/C=C/C=C(\C)[C@H]1OC(=O)C[C@H](O)CC[C@@](C)(OC)[C@@H](OC(=O)N2CCNC(CCC(=O)O)C2)/C=C/[C@@H]1C (stereo partly drawn) [D22, N-ethyl-N-isopropylpropan-3-(4-((((2S,3S,6S,7R,10R,E)-10-hydroxy-2-((R,2E,4E)-6-hydroxy-7-((2R,3R)-3-((2R,3S)-3-hydroxypentan-2-yl)oxiran-2-yl)-6-methylhepta-2,4-dien-2-yl)-7-methoxy-3,7-dimethyl-12-oxooxacyclododec-4-en-6-yl)oxy)carbonyl)piperazin-2-yl)propanoic acid]",CTGlo-AT S Mean Min-Response % 72 h THP1.1,[2],−78.119%
same,"Papp A→B at 2 h, 10 NM",[3]; [9],0.14 ×10⁻⁶ cm/s
same,"Papp B→A at 2 h, 10 NM",[3]; [10],0.16 ×10⁻⁶ cm/s
C/C(=C\c1cc(F)cc(N2CCN(C(=O)Cn3cccn3)CC2)c1)[C@H]1OC(=O)C[C@H](O)CC[C@H](C)[C@@H](OC(=O)N2CCN(C)CC2)/C=C/[C@@H]1C [D26],half-life at 20 μM,[1],> 168 h
same,CTGlo-AT S Mean Min-Response % 72 h THP1.1,[2],−99.401%
same,"Papp A→B at 2 h, 10 NM",[3]; [9],16 ×10⁻⁶ cm/s
same,"Papp B→A at 2 h, 10 NM",[3]; [10],41.1 ×10⁻⁶ cm/s
"C/C(=C\c1cc(F)cc(N2CCN(CC(=O)O)CC2)c1)[C@H]1OC(=O)C[C@H](O)CC[C@H](C)[C@@H](OC(=O)N2CCNCC2)/C=C/[C@@H]1C [D33, 2-(4-(3-fluoro-5-((E)-2-((2S,3S,6R,7S,10R,E)-10-hydroxy-3,7-dimethyl-12-oxo-6-((piperazine-1-carbonyl)oxy)oxacyclododec-4-en-2-yl)prop-1-en-1-yl)phenyl)piperazin-1-yl)acetic acid]",CTGlo-AT S Mean Min-Response % 72 h THP1.1,[2],−53.128%
same,GI50,[2],195.752 nM
same,"Papp A→B at 2 h, 10 NM",[3]; [9],0.13 ×10⁻⁶ cm/s
same,"Papp B→A at 2 h, 10 NM",[3]; [10],0.53 ×10⁻⁶ cm/s
C/C(=C\c1cccc(S(=O)(=O)N2CCCC2)c1)[C@H]1OC(=O)C[C@H](O)CC[C@H](C)[C@@H](OC(=O)N2CCN(C)CC2)/C=C/[C@@H]1C [D34],"pH 5.5 Stability (t1/2, 37 C.)",[1],7
same,"Papp A→B at 2 h, 10 NM",[3]; [12],26 ×10⁻⁶ cm/s
B1,SMLA LD50,[6]; anti-CD138 ADC,>400 nM
same,SMLA Rmin (%),[6]; anti-CD138 ADC,−53.125%
same,GI50,[6]; [13],< 0.061 nM
B2,SMLA LD50,[6]; anti-CD138 ADC,>400 nM
same,SMLA Rmin (%),[6]; anti-CD138 ADC,−25.099%
B3,SMLA LD50,[6]; anti-CD138 ADC,0.535 nM
same,SMLA Rmin (%),[6]; anti-CD138 ADC,−99.306%
same,GI50,[6]; [13],< 0.061 nM
B4,SMLA LD50,[6]; anti-CD138 ADC,>400 nM
same,SMLA Rmin (%),[6]; anti-CD138 ADC,−74.008%
same,GI50,[6]; [13],< 0.061 nM
B5,SMLA LD50,[6]; anti-CD138 ADC,11.669 nM
same,SMLA Rmin (%),[6]; anti-CD138 ADC,−76.736%
same,GI50,[6]; [13],< 0.061 nM
B6,SMLA LD50,[6]; anti-CD138 ADC,>400 nM
same,SMLA Rmin (%),[6]; anti-CD138 ADC,2.419%
same,GI50,[6]; [13],0.258 nM
B7,SMLA LD50,[6]; anti-CD138 ADC,>400 nM
same,SMLA Rmin (%),[6]; anti-CD138 ADC,−46.23%
same,GI50,[6]; [13],< 0.061 nM
B8,SMLA LD50,[6]; anti-CD138 ADC,0.656 nM
same,SMLA Rmin (%),[6]; anti-CD138 ADC,−100.099%
same,GI50,[6]; [13],< 0.061 nM
